These results are taken from patent US9284333B2, “Fused pyrroledicarboxamides and their use as pharmaceuticals” (SANOFI, priority 2012, dated 2016).

Each structure is given as a SMILES string.

The experiment addresses Human TASK-1 channels (Homo sapiens (Human), UniProt O14649). Briefly: Determination of the activity on the TASK-1 channel in Xenopus oocytes (two-microelectrode voltage clamp). Particulars: for IC50: human TASK-1 expressed in Xenopus oocytes, room temperature, read-out: IC50 value for TASK-1 inhibition; for inhibition at 5 µM: compound concentration 5 μM. Type of experiment: cell-based. The procedure, abridged:
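Current during 500 ms pulses to 40 mV from a −90 mV hold was recorded in oocytes expressing human TASK-1 for two days after cRNA injection. Compounds were added cumulatively to the ND96 bath (pH 7.4, room temperature). IC50 came from dose-response fitting of inhibition relative to pre-compound current.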

For orientation: IC50 means the midpoint of a concentration-inhibition curve. By inhibition is commonly meant the change of the read-out against control, counted positive when it falls. A higher inhibition goes with a strong effect.

Chain of Human TASK-1 channels (O14649 whole entry): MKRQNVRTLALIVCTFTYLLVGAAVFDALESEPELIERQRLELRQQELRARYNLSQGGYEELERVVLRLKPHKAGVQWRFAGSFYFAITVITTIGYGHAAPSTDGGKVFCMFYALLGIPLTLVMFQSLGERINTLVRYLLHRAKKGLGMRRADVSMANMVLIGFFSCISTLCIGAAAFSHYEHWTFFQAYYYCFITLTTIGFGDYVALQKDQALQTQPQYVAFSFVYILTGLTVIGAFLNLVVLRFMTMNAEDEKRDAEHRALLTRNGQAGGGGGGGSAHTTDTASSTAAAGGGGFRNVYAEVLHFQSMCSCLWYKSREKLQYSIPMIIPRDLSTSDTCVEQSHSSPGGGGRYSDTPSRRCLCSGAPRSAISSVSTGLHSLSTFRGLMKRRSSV

Regarding `CC[C@@H](NC(=O)c1cc(C(=O)NCC(C)(C)O)n2c1COCC2)c1ccccc1` [16jd, 3,4-Dihydro-1H-pyrrolo[2,1-c][1,4]oxazine-6,8-dicarboxylic acid 6-[(2-hydroxy-2-methyl-propyl)-amide] 8-[((R)-1-phenyl-propyl)-amide]], the IC50 came to 2.5 µM. `CC[C@@H](NC(=O)c1cc(C(=O)NCc2cccnn2)n2c1COCC2)c1ccccc1` [16jf, 3,4-Dihydro-1H-pyrrolo[2,1-c][1,4]oxazine-6,8-dicarboxylic acid 8-[((R)-1-phenyl-propyl)-amide] 6-[(pyridazin-3-ylmethyl)-amide]] displayed an inhibition at 5 µM of 36%.

Compound `CC[C@@H](NC(=O)c1cc(C(=O)NCc2ccc(OC)nc2)n2c1COCC2)c1ccccc1` [16jg, 3,4-Dihydro-1H-pyrrolo[2,1-c][1,4]oxazine-6,8-dicarboxylic acid 6-[(6-methoxy-pyridin-3-ylmethyl)-amide] 8-[((R)-1-phenyl-propyl)-amide]] yielded an inhibition at 5 µM of 80%. Consider `CC[C@@H](NC(=O)c1cc(C(=O)N[C@H](CC)c2cccc(S(C)(=O)=O)c2)n2c1COCC2)c1ccccc1` [16jh, 3,4-Dihydro-1H-pyrrolo[2,1-c][1,4]oxazine-6,8-dicarboxylic acid 6-{[(R)-1-(3-methanesulfonyl-phenyl)-propyl]-amide}-8-[((R)-1-phenyl-propyl)-amide]], for which the IC50 was 0.78 µM. On to `CCC(NC(=O)c1cc(C(=O)N[C@H](CC)c2ccccc2)c2n1CCOC2)c1cccc(S(N)(=O)=O)c1` (stereo partly drawn) [16ji, 3,4-Dihydro-1H-pyrrolo[2,1-c][1,4]oxazine-6,8-dicarboxylic acid 8-[((R)-1-phenyl-propyl)-amide] 6-{[1-(3-sulfamoyl-phenyl)-propyl]-amide}], for which the half-maximal inhibitory concentration (IC50) turned out to be 1.9 µM.

Take `CC[C@@H](NC(=O)c1cc(C(=O)N[C@@H](CO)C(C)C)n2c1COCC2)c1ccccc1` [16jj, 3,4-Dihydro-1H-pyrrolo[2,1-c][1,4]oxazine-6,8-dicarboxylic acid 6-[((R)-1-hydroxymethyl-2-methyl-propyl)-amide] 8-[((R)-1-phenyl-propyl)-amide]]: the IC50 worked out at 4.4 µM. As for `CC[C@@H](NC(=O)c1cc(C(=O)Nc2c(C)noc2C)c2n1CCOC2)c1ccccc1` [16jk, 3,4-Dihydro-1H-pyrrolo[2,1-c][1,4]oxazine-6,8-dicarboxylic acid 8-[(3,5-dimethyl-isoxazol-4-yl)-amide] 6-[((R)-1-phenyl-propyl)-amide]], the IC50 was 0.62 µM. `CC[C@@H](NC(=O)c1cc(C(=O)NCc2c(C)noc2C)c2n1CCOC2)c1ccccc1` [16jl, 3,4-Dihydro-1H-pyrrolo[2,1-c][1,4]oxazine-6,8-dicarboxylic acid 8-[(3,5-dimethyl-isoxazol-4-ylmethyl)-amide] 6-[((R)-1-phenyl-propyl)-amide]]: the IC50 came out at 3.2 µM. Take `CC[C@@H](NC(=O)c1cc(C(=O)NCc2ncccn2)c2n1CCOC2)c1ccccc1` [16jm, 3,4-Dihydro-1H-pyrrolo[2,1-c][1,4]oxazine-6,8-dicarboxylic acid 6-[((R)-1-phenyl-propyl)-amide] 8-[(pyrimidin-2-ylmethyl)-amide]]: the IC50 is 1.5 µM.

With `CC[C@@H](NC(=O)c1cc(C(=O)NCc2ncco2)c2n1CCOC2)c1ccccc1` [16jn, 3,4-Dihydro-1H-pyrrolo[2,1-c][1,4]oxazine-6,8-dicarboxylic acid 8-[(oxazol-2-ylmethyl)-amide] 6-[((R)-1-phenyl-propyl)-amide]], the IC50 stood at 1 µM.

With `CC[C@@H](NC(=O)c1cc(C(=O)N[C@H](CC)c2ccccc2)n2c1COCC2)c1ccc(OC)nc1` [16jo, 3,4-Dihydro-1H-pyrrolo[2,1-c][1,4]oxazine-6,8-dicarboxylic acid 8-{[(R)-1-(6-methoxy-pyridin-3-yl)-propyl]-amide} 6-[((R)-1-phenyl-propyl)-amide]], the IC50 is 0.25 µM. In the case of `CC[C@H](NC(=O)c1cc(C(=O)N[C@H](C)c2ccc(F)cc2)c2n1CCOC2)c1ccccc1` [16jp, 3,4-Dihydro-1H-pyrrolo[2,1-c][1,4]oxazine-6,8-dicarboxylic acid 8-{[(R)-1-(4-fluoro-phenyl)-ethyl]-amide} 6-[((S)-1-phenyl-propyl)-amide]], the IC50 was determined as 0.22 µM. Same read-out and setting: the value for `CC[C@H](NC(=O)c1cc(C(=O)N[C@@H](c2ccc(F)cc2)C(C)C)c2n1CCOC2)c1ccccc1` [16jq, 3,4-Dihydro-1H-pyrrolo[2,1-c][1,4]oxazine-6,8-dicarboxylic acid 8-{[(R)-1-(4-fluoro-phenyl)-2-methyl-propyl]-amide} 6-[((S)-1-phenyl-propyl)-amide]] was 0.067 µM; that for `CC[C@@H](NC(=O)c1cc(C(=O)NCc2nc3ccccc3o2)c2n1CCOC2)c1ccccc1` [16js, 3,4-Dihydro-1H-pyrrolo[2,1-c][1,4]oxazine-6,8-dicarboxylic acid 8-[(benzooxazol-2-ylmethyl)-amide] 6-[((R)-1-phenyl-propyl)-amide]] was 0.54 µM; that for `CC[C@@H](NC(=O)c1cc(C(=O)NCc2nccs2)c2n1CCOC2)c1ccccc1` [16jt, 3,4-Dihydro-1H-pyrrolo[2,1-c][1,4]oxazine-6,8-dicarboxylic acid 6-[((R)-1-phenyl-propyl)-amide] 8-[(thiazol-2-ylmethyl)-amide]] was 0.15 µM. The same measure, in the same setting: to `CC[C@@H](NC(=O)c1cc(C(=O)Nc2nc(C)c(C)s2)c2n1CCOC2)c1ccccc1` [16ju, 3,4-Dihydro-1H-pyrrolo[2,1-c][1,4]oxazine-6,8-dicarboxylic acid 8-[(4,5-dimethyl-thiazol-2-yl)-amide] 6-[((R)-1-phenyl-propyl)-amide]] belongs 0.94 µM. As to `CC[C@@H](NC(=O)c1cc(C(=O)Nc2cnoc2)c2n1CCOC2)c1ccccc1` [16jv, 3,4-Dihydro-1H-pyrrolo[2,1-c][1,4]oxazine-6,8-dicarboxylic acid 8-isoxazol-4-ylamide 6-[((R)-1-phenyl-propyl)-amide]], the IC50 was determined as 0.21 µM. Consider `CC[C@@H](NC(=O)c1cc(C(=O)Nc2cc(C(F)(F)F)ccc2Cl)c2n1CCOC2)c1ccccc1` [16jx, 3,4-Dihydro-1H-pyrrolo[2,1-c][1,4]oxazine-6,8-dicarboxylic acid 8-[(2-chloro-5-trifluoromethyl-phenyl)-amide] 6-[((R)-1-phenyl-propyl)-amide]], for which the IC50 amounted to 0.22 µM. The same measure, in the same setting: to `CC[C@@H](NC(=O)c1cc(C(=O)N[C@H](CC)c2ccccc2)n2c1COCC2)c1ccc(C(F)(F)F)nc1` [16jy, 3,4-Dihydro-1H-pyrrolo[2,1-c][1,4]oxazine-6,8-dicarboxylic acid 6-[((R)-1-phenyl-propyl)-amide] 8-{[(R)-1-(6-trifluoromethyl-pyridin-3-yl)-propyl]-amide}] belongs 0.18 µM; to `CCOC(=O)CNC(=O)c1cc(C(=O)N[C@H](CC)c2ccccc2)c2n1CCOC2` [16k, {[8-((R)-1-Phenyl-propylcarbamoyl)-3,4-dihydro-1H-pyrrolo[2,1-c][1,4]oxazine-6-carbonyl]-amino}-acetic acid ethyl ester], 0.18 µM; to `CC[C@H](NC(=O)c1cc(C(=O)N[C@H](CC)c2ncccn2)c2n1CCOC2)c1ccccc1` [16kb, 3,4-Dihydro-1H-pyrrolo[2,1-c][1,4]oxazine-6,8-dicarboxylic acid 6-[((S)-1-phenyl-propyl)-amide] 8-[((R)-1-pyrimidin-2-yl-propyl)-amide]], 0.62 µM. For the compound `CC[C@H](NC(=O)c1cc(C(=O)N[C@@H](CC)c2ncccn2)c2n1CCOC2)c1ccccc1` [16kc], the IC50 amounted to 1.8 µM.

On to `CC[C@@H](NC(=O)c1cc(C(=O)N[C@H](CC)c2ncccn2)c2n1CCOC2)c1ccccc1` [16kd, 3,4-Dihydro-1H-pyrrolo[2,1-c][1,4]oxazine-6,8-dicarboxylic acid 6-[((R)-1-phenyl-propyl)-amide] 8-[((R)-1-pyrimidin-2-yl-propyl)-amide]], for which the half-maximal inhibitory concentration (IC50) amounted to 0.14 µM. Same read-out and setting: the value for `CC[C@H](NC(=O)c1cc(C(=O)N[C@H](CC)c2ccccc2)n2c1COCC2)c1ncccn1` [16ke, 3,4-Dihydro-1H-pyrrolo[2,1-c][1,4]oxazine-6,8-dicarboxylic acid 6-[((R)-1-phenyl-propyl)-amide] 8-[((S)-1-pyrimidin-2-yl-propyl)-amide]] was 0.22 µM.

In turn, `CC[C@H](NC(=O)c1cc(C(=O)N[C@H](CC)c2ccc(C(F)(F)F)nc2)c2n1CCOC2)c1ccccc1` [16kf, 3,4-Dihydro-1H-pyrrolo[2,1-c][1,4]oxazine-6,8-dicarboxylic acid 6-[((S)-1-phenyl-propyl)-amide] 8-{[(R)-1-(6-trifluoromethyl-pyridin-3-yl)-propyl]-amide}] had an inhibition at 5 µM of 90%.

In turn, `CC[C@H](NC(=O)c1cc(C(=O)N[C@H](C)c2ncccn2)c2n1CCOC2)c1ccccc1` [16kg, 3,4-Dihydro-1H-pyrrolo[2,1-c][1,4]oxazine-6,8-dicarboxylic acid 6-[((S)-1-phenyl-propyl)-amide] 8-[((R)-1-pyrimidin-2-yl-ethyl)-amide]] displayed an inhibition at 5 µM of 70%.

For the compound `CC[C@@H](NC(=O)c1cc(C(=O)N2CCOC[C@@H]2C)c2n1CCOC2)c1ccccc1` [16kh, 8-((S)-3-Methyl-morpholine-4-carbonyl)-3,4-dihydro-1H-pyrrolo[2,1-c][1,4]oxazine-6-carboxylic acid ((R)-1-phenyl-propyl)-amide], the IC50 stood at 0.99 µM. Turning to `CC[C@@H](NC(=O)c1cc(C(=O)N2CCC[C@@H]2C)c2n1CCOC2)c1ccccc1` [16ki, 8-((S)-2-Methyl-pyrrolidine-1-carbonyl)-3,4-dihydro-1H-pyrrolo[2,1-c][1,4]oxazine-6-carboxylic acid ((R)-1-phenyl-propyl)-amide], the IC50 was found to be 0.2 µM. In the case of `CC[C@@H](NC(=O)c1cc(C(=O)N2CCC[C@H]2C)c2n1CCOC2)c1ccccc1` [16kj, 8-((R)-2-Methyl-pyrrolidine-1-carbonyl)-3,4-dihydro-1H-pyrrolo[2,1-c][1,4]oxazine-6-carboxylic acid ((R)-1-phenyl-propyl)-amide], the half-inhibitory concentration (IC50) was determined as 0.27 µM.
